Earlier results, collected in patent publication US10927113B2, “Process for preparing purine derivatives” (Cyclacel Limited, priority 2017, dated 2021).

What was measured:
[1] = test system: CDK; settings: background statement referring to WO 2008/122767
[2] = test system: a range of different cell lines; settings: background statement

Compound: CC[C@H](Nc1nc(NCc2cnc(C)cc2C)c2ncn(C(C)C)c2n1)[C@@H](C)O [Compound [1]]
- CDK inhibitory activity [1]: potent CDK inhibitory activity
- potency in cellular toxicity studies [2]: surprisingly high potency
